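96-well plates; 48 h exposure; 5 concentrations. Endpoints by linear interpolation between flanking doses. Not reached: highest tested concentration assigned. GI50: concentration for 50% inhibition of growth. TGI denotes the concentration required for complete inhibition of growth.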
Legend:
Test in all cases: inhibition of tumour cell growth, NCI panel, 48 h
[1] = tested on: MALME-3M melanoma
[2] = tested on: HS 578T breast
[3] = tested on: MDA-MB-231 breast
[4] = tested on: SW-620 colon
[5] = tested on: HCT-15 colon
[6] = tested on: U251 CNS
[7] = tested on: DU-145 prostate
[8] = tested on: SK-MEL-2 melanoma
[9] = tested on: K-562 leukemia
[10] = tested on: LOX IMVI melanoma

Structure (SMILES) | GI50 [1] | TGI [1] | GI50 [2] | TGI [2] | GI50 [3] | TGI [3] | GI50 [4] | TGI [4] | GI50 [5] | TGI [5] | GI50 [6] | TGI [6] | GI50 [7] | TGI [7] | GI50 [8] | TGI [8] | GI50 [9] | TGI [9] | GI50 [10] | TGI [10]
CC1=C(CNO)C2=C(C)C3(CC3)[C@@](C)(O)C(=O)C2=C1 | 1.81 µM | 3.71 µM | 2.7 µM | 9.18 µM | 2.03 µM | 7.14 µM | 4.54 µM | > 100 µM | 1.71 µM | 4.99 µM | 2.39 µM | > 100 µM | 0.375 µM | 5.5 µM | 1.98 µM | 4.91 µM | 11.9 µM | > 100 µM | 3.44 µM | 19 µM
COc1ccc(/C=C\c2cc(OC)c(OC)c(OC)c2)c(NS(=O)(=O)c2ccc(C(C)(C)C)cc2)c1O | 12.5 µM | 30.4 µM | 0.521 µM | 19.9 µM | 0.358 µM | 16.9 µM | 0.329 µM | 23.5 µM | 0.234 µM | 16.2 µM | 0.597 µM | 21.8 µM | 0.395 µM | 12.5 µM | 1.22 µM | 20.2 µM | 0.0714 µM | > 100 µM | 0.667 µM | 17.1 µM
Oc1ccccc1C=Nc1nc(OCc2ccccc2)nc2[nH]ncc12 | 16.6 µM | 38.2 µM | 19.2 µM | 56.9 µM | 15 µM | 37.3 µM | 27.4 µM | 76.1 µM | 38.3 µM | > 100 µM | 22.4 µM | 62 µM | 33.9 µM | > 100 µM | 32.2 µM | > 100 µM | 30.3 µM | > 100 µM | 18 µM | 46.2 µM
CNCc1cccc2c1OCCOCCOCCC(C)S(=O)(=O)c1ccc(cc1)-c1cnc(N)c(n1)C(=O)N2 (stereo not given) | 1.59 µM | 3.13 µM | 0.602 µM | 3.09 µM | 2.34 µM | 5.5 µM | 2.13 µM | 10.7 µM | 1.11 µM | 6.2 µM | 1.15 µM | 3.62 µM | 1.25 µM | 3.41 µM | 2.37 µM | 6.36 µM | 1.5 µM | 10.4 µM | 1.81 µM | 5.41 µM
C#Cc1cccc(NC(=O)C2CCCN(C(=O)CCl)C2)c1 (stereo not given) | 18.1 µM | 78.6 µM | > 82.5 µM | > 82.5 µM | > 82.5 µM | > 82.5 µM | 29.5 µM | > 82.5 µM | 28.3 µM | > 82.5 µM | > 82.5 µM | > 82.5 µM | > 82.5 µM | > 82.5 µM | > 82.5 µM | > 82.5 µM | 36.6 µM | > 82.5 µM | 14.4 µM | 28.7 µM
NC(N)=N/N=C(/c1ccccc1)c1ccccc1F | 8 µM | 25.6 µM | 2.79 µM | 11.6 µM | 3.34 µM | 11.8 µM | 2.75 µM | 21.1 µM | 1.98 µM | 13.8 µM | 2.64 µM | 13.3 µM | 3.56 µM | 16.6 µM | 12.2 µM | 36.7 µM | 1.32 µM | > 100 µM | 4.69 µM | 19.9 µM

From PubChem BioAssay (NCI)
